Measured values: the NIST ThermoML archive (doi:10.1016/j.jct.2019.02.020)

Assay: mn = molality of the nth substance listed, in mol/kg
Conditions: 100 kPa, Liquid; for viscosity: Falling or rolling sphere viscometry; for mass density: Vibrating tube method

O=S(=O)(O)O [sulfuric acid] + O
Conditions	mass density [kg/m3]	viscosity [mPa·s]
283.15 K, m1 = 0.05	1003.29	1.322
283.15 K, m1 = 0.1	1006.64	1.326
283.15 K, m1 = 0.1498	1009.9	1.339
283.15 K, m1 = 0.1997	1013.13	1.352
283.15 K, m1 = 0.2501	1016.29	1.363
283.15 K, m1 = 0.2999	1019.54	1.375
283.15 K, m1 = 0.3312	–	1.386
283.15 K, m1 = 0.3996	1025.76	1.399
283.15 K, m1 = 0.5001	1031.92	1.415
283.15 K, m1 = 0.6672	–	1.48
283.15 K, m1 = 0.9962	–	1.502
283.15 K, m1 = 1.331	–	1.653
283.15 K, m1 = 1.669	–	1.733
283.15 K, m1 = 2	–	1.817
283.15 K, m1 = 2.327	–	1.914
283.15 K, m1 = 2.667	–	2.017
283.15 K, m1 = 2.994	–	2.154
283.15 K, m1 = 3.33	–	2.28
283.15 K, m1 = 3.667	–	2.331
288.15 K, m1 = 0.05	1002.61	1.151
288.15 K, m1 = 0.1	1005.89	1.156
288.15 K, m1 = 0.1498	1009.09	1.167
288.15 K, m1 = 0.1997	1012.25	1.179
288.15 K, m1 = 0.2501	1015.35	1.19
288.15 K, m1 = 0.2999	1018.53	1.2
288.15 K, m1 = 0.3312	–	1.212
288.15 K, m1 = 0.3996	1024.63	1.221
288.15 K, m1 = 0.5001	1030.68	1.236
288.15 K, m1 = 0.6672	–	1.294
288.15 K, m1 = 0.9962	–	1.321
288.15 K, m1 = 1.331	–	1.45
288.15 K, m1 = 1.669	–	1.519
288.15 K, m1 = 2	–	1.589
288.15 K, m1 = 2.327	–	1.672
288.15 K, m1 = 2.667	–	1.768
288.15 K, m1 = 2.994	–	1.882
288.15 K, m1 = 3.33	–	1.978
288.15 K, m1 = 3.667	–	2.036
293.15 K, m1 = 0.05	1001.64	1.014
293.15 K, m1 = 0.1	1004.86	1.019
293.15 K, m1 = 0.1498	1007.99	1.029
293.15 K, m1 = 0.1997	1011.1	1.04
293.15 K, m1 = 0.2501	1014.14	1.049
293.15 K, m1 = 0.2999	1017.27	1.058
293.15 K, m1 = 0.3312	1019.13	1.07
293.15 K, m1 = 0.3996	1023.27	1.077
293.15 K, m1 = 0.5001	1029.22	1.091
293.15 K, m1 = 0.6672	1039.1	1.144
293.15 K, m1 = 0.9962	1057.95	1.172
293.15 K, m1 = 1.331	1076.44	1.282
293.15 K, m1 = 1.669	1094.43	1.343
293.15 K, m1 = 2	1111.51	1.406
293.15 K, m1 = 2.327	1127.75	1.476
293.15 K, m1 = 2.667	1143.44	1.569
293.15 K, m1 = 2.994	1161.33	1.663
293.15 K, m1 = 3.33	1173.91	1.725
293.15 K, m1 = 3.667	1188.61	1.794
298.15 K, m1 = 0.05	1000.42	0.9019
298.15 K, m1 = 0.1	1003.57	0.9068
298.15 K, m1 = 0.1498	1006.66	0.916
298.15 K, m1 = 0.1997	1009.71	0.9259
298.15 K, m1 = 0.2501	1012.71	0.9338
298.15 K, m1 = 0.2999	1015.79	0.9443
298.15 K, m1 = 0.3312	–	0.9534
298.15 K, m1 = 0.3996	1021.7	0.9597
298.15 K, m1 = 0.5001	1027.57	0.9715
298.15 K, m1 = 0.6672	–	1.024
298.15 K, m1 = 0.9962	–	1.049
298.15 K, m1 = 1.331	–	1.144
298.15 K, m1 = 1.669	–	1.197
298.15 K, m1 = 2	–	1.252
298.15 K, m1 = 2.327	–	1.314
298.15 K, m1 = 2.667	–	1.391
298.15 K, m1 = 2.994	–	1.474
298.15 K, m1 = 3.33	–	1.534
298.15 K, m1 = 3.667	–	1.596
303.15 K, m1 = 0.05	998.96	0.8093
303.15 K, m1 = 0.1	1002.07	0.8127
303.15 K, m1 = 0.1498	1005.1	0.8218
303.15 K, m1 = 0.1997	1008.12	0.8307
303.15 K, m1 = 0.2501	1011.07	0.8376
303.15 K, m1 = 0.2999	1014.11	0.8489
303.15 K, m1 = 0.3312	1015.94	0.8561
303.15 K, m1 = 0.3996	1019.95	0.8615
303.15 K, m1 = 0.5001	1025.74	0.8719
303.15 K, m1 = 0.6672	1035.36	0.9256
303.15 K, m1 = 0.9962	1053.74	0.9448
303.15 K, m1 = 1.331	1071.78	1.026
303.15 K, m1 = 1.669	1089.37	1.073
303.15 K, m1 = 2	1106.08	1.123
303.15 K, m1 = 2.327	1122.01	1.179
303.15 K, m1 = 2.667	1138.64	1.244
303.15 K, m1 = 2.994	1155.01	1.319
303.15 K, m1 = 3.33	1167.41	1.374
303.15 K, m1 = 3.667	1181.92	1.429
308.15 K, m1 = 0.05	997.29	0.7303
308.15 K, m1 = 0.1	1000.35	0.7339
308.15 K, m1 = 0.1498	1003.35	0.7412
308.15 K, m1 = 0.1997	1006.33	0.7497
308.15 K, m1 = 0.2501	1009.25	0.7567
308.15 K, m1 = 0.2999	1012.25	0.7652
308.15 K, m1 = 0.3312	–	0.7753
308.15 K, m1 = 0.3996	1018.02	0.7799
308.15 K, m1 = 0.5001	1023.74	0.7884
308.15 K, m1 = 0.6672	–	0.8371
308.15 K, m1 = 0.9962	–	0.8554
308.15 K, m1 = 1.331	–	0.9337
308.15 K, m1 = 1.669	–	0.9775
308.15 K, m1 = 2	–	1.016
308.15 K, m1 = 2.327	–	1.059
308.15 K, m1 = 2.667	–	1.116
308.15 K, m1 = 2.994	–	1.188
308.15 K, m1 = 3.33	–	1.238
308.15 K, m1 = 3.667	–	1.29
313.15 K, m1 = 0.05	995.42	0.6585
313.15 K, m1 = 0.1	998.45	0.6663
313.15 K, m1 = 0.1498	1001.41	0.6726
313.15 K, m1 = 0.1997	1004.36	0.6808
313.15 K, m1 = 0.2501	1007.25	0.6869
313.15 K, m1 = 0.2999	1010.22	0.698
313.15 K, m1 = 0.3312	–	0.7043
313.15 K, m1 = 0.3996	1015.94	0.7078
313.15 K, m1 = 0.5001	1021.61	0.716
313.15 K, m1 = 0.6672	–	0.7631
313.15 K, m1 = 0.9962	–	0.7748
313.15 K, m1 = 1.331	–	0.8534
313.15 K, m1 = 1.669	–	0.8905
313.15 K, m1 = 2	–	0.9243
313.15 K, m1 = 2.327	–	0.9706
313.15 K, m1 = 2.667	–	1.019
313.15 K, m1 = 2.994	–	1.077
313.15 K, m1 = 3.33	–	1.125
313.15 K, m1 = 3.667	–	1.171
318.15 K, m1 = 0.05	993.38	0.6063
318.15 K, m1 = 0.1	996.37	0.6087
318.15 K, m1 = 0.1498	999.3	0.6141
318.15 K, m1 = 0.1997	1002.21	0.6219
318.15 K, m1 = 0.2501	1005.09	0.6274
318.15 K, m1 = 0.2999	1008.03	0.6362
318.15 K, m1 = 0.3312	–	0.6443
318.15 K, m1 = 0.3996	1013.7	0.6502
318.15 K, m1 = 0.5001	1019.32	0.6543
318.15 K, m1 = 0.6672	–	0.6978
318.15 K, m1 = 0.9962	–	0.7101
318.15 K, m1 = 1.331	–	0.7819
318.15 K, m1 = 1.669	–	0.8167
318.15 K, m1 = 2	–	0.8473
318.15 K, m1 = 2.327	–	0.8914
318.15 K, m1 = 2.667	–	0.9455
318.15 K, m1 = 2.994	–	0.9872
318.15 K, m1 = 3.33	–	1.027
318.15 K, m1 = 3.667	–	1.07

O=S(=O)([O-])[O-].[O]=[V+2] [oxovanadium(IV) sulfate] + O
Conditions	mass density, 293.15 K [kg/m3]	mass density, 303.15 K [kg/m3]	viscosity, 283.15 K [mPa·s]	viscosity, 288.15 K [mPa·s]	viscosity, 293.15 K [mPa·s]	viscosity, 298.15 K [mPa·s]	viscosity, 303.15 K [mPa·s]	viscosity, 308.15 K [mPa·s]	viscosity, 313.15 K [mPa·s]	viscosity, 318.15 K [mPa·s]
m1 = 0.2501	1034.67	1031.66	1.551	1.347	1.183	1.049	0.9378	0.8442	0.764	0.6958
m1 = 0.5	1069.8	1066.39	1.861	1.61	1.409	1.244	1.108	0.9929	0.897	0.8143
m1 = 0.7507	1104.11	1100.34	2.242	1.932	1.682	1.479	1.311	1.171	1.053	0.9528
m1 = 0.9964	1136.2	1132.1	2.697	2.312	2.005	1.755	1.55	1.379	1.235	1.113
m1 = 1.25	1169.5	1165.09	3.308	2.816	2.429	2.115	1.859	1.646	1.468	1.319
m1 = 1.5	1201.04	1196.42	4.052	3.427	2.936	2.543	2.223	1.959	1.74	1.556
m1 = 1.75	1231.58	1226.74	4.966	4.171	3.548	3.052	2.66	2.334	2.064	1.838
m1 = 2	1261.16	1256.15	6.108	5.092	4.304	3.679	3.18	2.783	2.445	2.168
m1 = 2.249	1289.97	1284.81	7.543	6.238	5.238	4.448	3.824	3.32	2.916	2.575
m1 = 2.499	1317.94	1312.66	9.273	7.615	6.348	5.359	4.58	3.953	3.446	3.029
m1 = 2.75	1345.06	1339.67	11.55	9.405	7.784	6.524	5.544	4.758	4.126	3.608
